Earlier results in PMC3127977, “No relevant cardiac, pharmacokinetic or safety interactions between roflumilast and inhaled formoterol in healthy subjects: an open-label, randomised, actively controlled study” (BMC Clinical Pharmacology, 2011).
Where two headings read alike, the source gives them in different places.

Settings: cited from earlier work
[1] = CYP3A4 inhibitors co-administered with roflumilast

SMILES	increase of tPDE4i (CYP1A2 or dual CYP3A4/1A2 inhibitor co-administered with roflumilast)	increase of tPDE4i [1]
CCn1cc(C(=O)O)c(=O)c2cc(F)c(N3CCNCC3)nc21 [enoxacin]	25%	–
CC[C@H]1OC(=O)[C@H](C)[C@@H](O[C@H]2C[C@@](C)(OC)[C@@H](O)[C@H](C)O2)[C@H](C)[C@@H](O[C@@H]2O[C@H](C)C[C@H](N(C)C)[C@H]2O)[C@](C)(O)C[C@@H](C)C(=O)[C@H](C)[C@@H](O)[C@]1(C)O [erythromycin]	–	8-9%
CC(=O)N1CCN(c2ccc(OCC3COC(Cn4ccnc4)(c4ccc(Cl)cc4Cl)O3)cc2)CC1 (stereo not drawn) [ketoconazole]	–	8-9%
